In patent US6465451B1, “Hypolipidemic benzothiazepine compounds” (SmithKline Beecham Corporation, priority 1998, dated 2002):

Experiments:
[1] = biological target: T1, ileal bile acid active uptake system (Rattus norvegicus, UniProt Q62633); experiment: In vivo inhibition of bile acid reabsorption (75SeHCAT, rat); settings: male Spraque-Dawley rats, oral gavage twice daily for two days, fecal 75SeHCAT over 24 hours, n=12 total
T1 construct: from tissue; host or cells: whole animal (rat ileum, in vivo)
T1 sequence (Q62633 1-348): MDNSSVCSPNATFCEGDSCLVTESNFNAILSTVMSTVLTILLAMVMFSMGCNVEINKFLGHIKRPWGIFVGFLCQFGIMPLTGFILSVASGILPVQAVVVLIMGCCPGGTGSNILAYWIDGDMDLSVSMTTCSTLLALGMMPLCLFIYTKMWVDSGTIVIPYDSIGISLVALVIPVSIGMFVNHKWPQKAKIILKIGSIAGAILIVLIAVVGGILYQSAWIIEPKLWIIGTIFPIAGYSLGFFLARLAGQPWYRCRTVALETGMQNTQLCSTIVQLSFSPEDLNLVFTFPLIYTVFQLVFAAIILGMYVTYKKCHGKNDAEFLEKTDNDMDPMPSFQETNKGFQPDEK
Method: (I) In vivo Inhibition of Bile Acid Reabsorption
Male Spraque-Dawley rats (CD, Charles River) weighing 220-260 gm were housed in individual cages and fed normal chow. The rats were dosed by oral gavage (1 ml/100 gm body weight) with test compounds as a suspension in 0.5% methylcellulose at 9:00 a.m. and 3:30 p.m. for two days. The control group received 0.5% methylcellose. Two hours after the morning dose on day two, the rats were given a trace amount (1.3 nmoles) of 23,25−^75Se-homocholic acid taurine (^75SeHCAT) in 1.0 ml saline orally. ^75SeHCAT, a synthetic gamma emitting bile acid analog which is absorbed by the ileal bile acid active uptake system similar to taurocholic acid, has been used clinically as a measure of ileal bile acid absorption. Feces were collected over the 24 hours following ^75SeHCAT administration. Fecal content of ^75SeHCAT was determined using a Packard Auto-Gamma 5000 Series gamma-counter. The % inhibition of bile acid reabsorption is calculated as follows: [formula]
The percent of inhibition of bile acid reabsorption in the rat using ^75SeHCAT was used to determine the ED30 (the dose required to give 30% inhibition of bile acid uptake). […]

[2] = tested on: male Spraque-Dawley rats; experiment: Percent cholesterol lowering in rats fed a cholesterol-cholic acid enriched diet; assay type: in vivo, rat; settings: gavage b.i.d. for 3 days and once on day four, hypercholesterolemic rats, serum lipids four hours after last dose
Method: (II) Percent Cholesterol Lowering in Rats
Hypercholesterolemia was induced in male Spraque-Dawley rats (CD, Charles River weighing 200-300 g) by administration of a diet enriched in cholesterol and cholic acid. The diet was prepared from Wayne Laboratory Lab Blocks ground into meal and mechanically mixed with powdered cholesterol and cholic acid to a final concentration (by weight) of 1% and 0.5%, respectively. Prior to administration of the diet, blood was collected under halothane anesthesia by cardiac puncture to determine baseline lipid levels. Serum was obtained for analysis of total cholesterol (TC), high density lipoprotein cholesterol (HDL-C), and dextran-precipitable lipoprotein-cholesterol (VLDL+LDL). The rats were divided into groups so that each group had similar baseline serum lipid levels. Five days following the initial sampling for serum lipids the rats were fed ab lib the cholesterol-cholic acid enriched diet and compound administration was begun. The compound was administered by gavage as a suspension in 0.5% methylcellulose (1 ml/100 g body weight) b.i.d. at 9:00 a.m. and 3:00 p.m. for 3 days and at 9:00 a.m. on day four. Control animals received 0.5% methylcellulose only. The rats were bleed four hours after the last dose for the determination of serum lipids. All blood collections were done after a 4-h fast. Serum TC concentrations were determined enzymatically using reagents obtained from Seragen Diagnostics (2). Serum HDL-C was determined after selective precipitation of VLDL and LDL with dextran sulfate and magnesium sulfate, with reagents from Seragen (3). HDL-C was determined in the supernatant. VLDL+LDL cholesterol was determined as the difference between total and HDL-C. The following results were obtained for Example 1 and Example A, as defined above.

In the case of `CCCC[C@@]1(CC)CN(c2ccccc2)c2cc(Cl)c(O)cc2S(=O)(=O)C1` [Example 1, (3S)-2,3,4,5-Tetrahydro-3-ethyl-3-butyl-5-phenyl-7-chloro-8-hydroxy-1,5-benzothiazepine-1,1-dioxide], the “ED30 (the dose required to give 30% inhibition of bile acid uptake)” value [1] is reported as 0.048 mg/kg, the melting point is reported as 179.6 to 180.2 °C and the Percent cholesterol lowering ([2]; dose 0.03 mg/kg) is reported as 48%. It also gave a Percent cholesterol lowering ([2]; dose 0.1 mg/kg) of 56% and a Percent cholesterol lowering ([2]; dose 0.3 mg/kg) of 81%.

With `CCCCC1(CC)CN(c2ccccc2)c2cc(Br)c(O)cc2S(=O)(=O)C1` (stereo not drawn) [Example A, 2,3,4,5-tetrahydro-3-ethyl-3-butyl-5-phenyl-7-bromo-8-hydroxy-1,5-benzothiazepine-1,1-dioxide, reference compound] the “ED30 (the dose required to give 30% inhibition of bile acid uptake)” value [1] was 0.17 mg/kg, the Percent cholesterol lowering ([2]; dose 0.03 mg/kg) was 14% and the Percent cholesterol lowering ([2]; dose 0.1 mg/kg) was 17%. The Percent cholesterol lowering ([2]; dose 0.3 mg/kg) was 53%.
